# Non-standard residues stand in square brackets, D forms with d. No end group written: not given here. Aib = CC(C)(N)C(=O)O
# Assays:
# [1] = tested on: cerebral cortical cultures derived from newborn rats; test: Neuronal survival in cerebral cortical cultures treated with beta-amyloid peptide (1-42); type: cell-based, rat; conditions: for protection of neurons against neurotoxicity of beta-amyloid peptide 1-42 (neuronal cell numbers): 2.5 μM beta-amyloid peptide (1-42), peptide 10^−16M to 10^−10M, p<0.001, FIG. 1; for neuroprotective activity compared with unmodified NAP: FIG. 1 compared with FIG. 2, 2.5 micromolar beta amyloid peptide
# Description: All peptides were dissolved in distilled sterile water to a concentration of 1 mM and then diluted in water in 1:10 steps up to the required concentration. The beta-amyloid peptide (1-42) was obtained from American Peptides, Calif., USA.
# Cerebral cortical cultures derived from newborn rats were used for neuron survival assays. For mixed neuroglial cultures, neurons 300,000 cells/35 mm dish were seeded on 8-day-old astrocytes prepared as described (Bassan et al., supra (1999); Brenneman et al., supra (2004)). Cells were allowed to grow for one week at 37° C. 10% CO2 before experiments were performed. Four days after neuronal plating, cultures were given their respective treatment and assayed for neuronal survival after an additional 5 day incubation period.
# The culture medium was removed and cells were washed twice with phosphate buffered saline (PBS). 1.5 ml of 3% glutaraldehyde (Fluka Biochemika, Steinheim, Germany) in 0.1 M cacodylic acid pH 7.2 (Fluka Biochemika, Steinheim, Germany) was added for two hours. The cells were then washed with PBS and 2 ml of 0.15 M cacodylic acid pH 7.2 was added. Neuronal identity was established by morphological criteria using an Olympus CK2 light microscope (Olympus, Japan) with a X40 lens. Fifty fields were counted in each dish (Zemlyak et al., supra (2000)).
# The number of surviving neurons was assessed in cerebral cortical cultures derived from newborn rats using the beta-amyloid peptide (1-42), an Alzheimer's disease-associated toxin, at 2.5 μM. Alpha-aminoisobutric NAP was used at the following concentrations: 10^−16M, 10^−15M, 10^−12M, 10^−10M. […] Cell counts totaled>100% of control, because the treatment prevents neuronal cell death that occurred naturally in the cultures (10-20%), as observed before (Bassan et al., supra (1999)). […] This is an unexpected finding in view of previous reports that describe the SIP motif as essential for NAP neuroprotection (Wilkemeyer et al., Proc Natl Acad Sci USA, 100(14):8543-8 (2003)).
# ADNP^+/− male mice = test: Morris water maze test; type: in vivo, mouse
# Description: The heterozygous ADNP mice were generated as before (Pinhasov et al., Brain Res. Dev. Brain Res. 2003, 144:83-90; and Vulih-Shultzman et al., J Pharmacol Exp Ther. 2007, 323(2):438-49). To avoid any variability in results associated with the estrous cycle in females, only ADNP^+/− male mice are use for behavioral experiments.
# Iso-NAP (NAXaaVSIXaaQ; SEQ ID NO:1) was dissolved in a vehicle solution, in which each milliliter included 7.5 mg of NaCl, 1.7 mg of citric acid monohydrate, 3 mg of disodium phosphate dihydrate, and 0.2 mg of benzalkonium chloride solution (50%). Iso-NAP or vehicle solution (DD) was administered to mice handheld in a semi-supine position with nostrils facing the investigator. A pipette tip was used to administer 2.5 μl/each nostril. The mouse was handheld until the solution is entirely absorbed. Nasal Iso-NAP application was performed daily, once a day, for 2 weeks for the Morris water maze test. In the 2nd week, Iso-NAP was applied 1 h before the daily test (see below), which was conducted for 5 consecutive days. In the passive avoidance test, all mice were treated for a total of 7 days, on the 7th day of treatment the test began. Iso-NAP was applied 1 h before the test.
# The mouse is placed in a pool of water that is colored opaque with powdered non-fat milk, where it must swim to a hidden escape platform. The position of the platform is altered between days but remains constant within each day. Because it is in opaque water, the mouse cannot see the platform, and cannot rely on scent to find the escape route. As the mouse becomes more familiar with the task, it is able to find the platform more quickly.
# Pool diameter—140 cm, Platform—clear plaxiglass, 12 cm in diameter, 2 cm below the surface of the water, Water temperature—22-23° C., Room temperature—26-28° C.
# Mice are treated with Iso-NAP/vehicle and then habituated for 1 hour in the experimental room. […] The time requires to reach the platform in each trial is measured. […]
# [2] = listed as Alpha-aminoisobutric NAP
substance,measurement,setting,value
"NAXaaVSIXaaQ (NA[Aib]VSI[Aib]Q) [Alpha-aminoisobutyric NAP, both prolines of NAP substituted]",cell counts,[1]; 2.5 μM beta-amyloid peptide (1-42) plus peptide,> 100 % of control
same,protection of neurons against neurotoxicity of beta-amyloid peptide 1-42 (neuronal cell numbers),[1]; [2],protected against neurotoxicity associated with the beta-amyloid peptide 1-42
same,protection of neurons against neurotoxicity of beta-amyloid peptide 1-42 (neuronal cell numbers),[1]; listed as alpha-aminoisobutric NAP,confers protection of neurons
same,neuroprotective activity compared with unmodified NAP,[1],increased neuroprotective activity
same,neuroprotective activity compared with unmodified NAP,[1]; [2],increased activity
same,Morris water maze performance (working memory) vs vehicle controls,"ADNP^+/− male mice; 2 μg/5 μl/mouse/day intranasal, third day of testing, P<0.05",performed better than controls
same,Morris water maze performance (working memory) vs vehicle controls,"ADNP^+/− male mice; 30 μg/5 μl/mouse/day intranasal, day 2 P<0.05, day 3 P<0.07, listed as Iso-NAP",better than control on testing days 2 and 3
same,Morris water maze performance (working memory) vs vehicle controls,"ADNP^+/− male mice; 30 μg/5 μl/mouse/day intranasal, day 2 P<0.05, day 3 P<0.07, listed as IsoNAP",seems to affect the spatial memory

# — patent publication US8586548B2, “NAP alpha-aminoisobutyric acid analog with neuroprotective activity” (Ramot at Tel-Aviv University, Ltd., priority 2009, dated 2013)
